Numbering of substitutions follows the chain as printed.
What was measured:
[1] = target: T1, WT mTAAR9 (Mus musculus, UniProt Q5QD04); test: CRE-luciferase reporter assay, wild-type mTAAR9 in Hana3A; assay type: cell-based; settings: WT mTAAR9, Hana3A, CRE-luciferase; read-out: EC50 (mean ± S.D., n = 3)
T1 construct: Rho-tag (first 20 amino acids of bovine rhodopsin) (N); expressed in transfected cells; host or cells: Hana3A (HEK293-derived)
T1 sequence (Q5QD04 1-348): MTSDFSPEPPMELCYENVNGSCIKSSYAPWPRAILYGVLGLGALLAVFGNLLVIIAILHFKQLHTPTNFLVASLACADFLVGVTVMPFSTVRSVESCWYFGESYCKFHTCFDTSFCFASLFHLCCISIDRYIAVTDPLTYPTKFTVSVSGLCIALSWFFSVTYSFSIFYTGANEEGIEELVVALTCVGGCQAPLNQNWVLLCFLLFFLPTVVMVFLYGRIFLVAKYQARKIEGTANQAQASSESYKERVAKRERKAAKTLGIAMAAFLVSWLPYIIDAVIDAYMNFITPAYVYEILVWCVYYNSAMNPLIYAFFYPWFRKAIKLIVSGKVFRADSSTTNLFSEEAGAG
Protocol: (§1) Mammalian TAAR9 plasmids were transfected into Hana3A cells along with a cAMP-dependent luciferase reporter plasmid (CRE-Luc). Transfected cells were incubated with tested ligands, and luciferase activity was quantified with a […] substrate as a reporter for Golf-mediated TAAR activation. Luciferase activity was indicated by the luminescence value and normalized as a fold-increase over the response to the vehicle stimuli (mean ± S.D., n = 3). […] B, Hana3A cells expressing mouse, rat, human, cat, hamster, and rabbit TAAR9 were incubated with either vehicle or tested ligands (1 mM) and assayed for reporter activity. C, concentration-dependent luciferase activity in Hana3A cells expressing mouse, rat, and cat TAAR9 receptors stimulated with cadaverine, spermidine, and spermine.
(§2) The firefly luciferase and renilla luciferase activity was measured with a BioTek microplate reader following manufacturer’s instructions.

[2] = target: T2, mTAAR9 Y6.51W (Mus musculus, UniProt Q5QD04, Y274W); test: CRE-luciferase reporter assay, mTAAR9 mutant in Hana3A; assay type: cell-based; settings: read-out: EC50 (mean ± S.D., n = 3)
T2 construct: expressed in transfected cells; host or cells: Hana3A (HEK293-derived)
T2 sequence (Q5QD04 1-348 Y274W): T1 sequence (Q5QD04 1-348) with Y274W

[3] = target: T3, mTAAR9 E7.36D (Mus musculus, UniProt Q5QD04, E294D); test: as above; assay type: cell-based; settings: read-out: EC50 (mean ± S.D., n = 3)
T3 construct: expressed in transfected cells; host or cells: Hana3A (HEK293-derived)
T3 sequence (Q5QD04 1-348 E294D): T1 sequence (Q5QD04 1-348) with E294D

[4] = target: T4, mTAAR9 W7.40F (Mus musculus, UniProt Q5QD04, W298F); test: as above; assay type: cell-based; settings: read-out: EC50 (mean ± S.D., n = 3)
T4 construct: expressed in transfected cells; host or cells: Hana3A (HEK293-derived)
T4 sequence (Q5QD04 1-348 W298F): T1 sequence (Q5QD04 1-348) with W298F

[5] = target: T5, mTAAR9 W7.40Y (Mus musculus, UniProt Q5QD04, W298Y); test: as above; assay type: cell-based; settings: read-out: EC50 (mean ± S.D., n = 3)
T5 construct: expressed in transfected cells; host or cells: Hana3A (HEK293-derived)

[6] = target: T6, mTAAR9 W7.40A (Mus musculus, UniProt Q5QD04, W298A); test: as above; assay type: cell-based; settings: read-out: EC50 (mean ± S.D., n = 3)
T6 construct: expressed in transfected cells; host or cells: Hana3A (HEK293-derived)
T6 sequence (Q5QD04 1-348 W298A): T1 sequence (Q5QD04 1-348) with W298A

[7] = target: T7, Rat TAAR9 (Rattus norvegicus, UniProt Q923Y6); test: CRE-luciferase reporter assay in Hana3A; assay type: cell-based; settings: rat TAAR9, ligand 1 mM, Fig. 1B
T7 construct: expressed in transfected cells; host or cells: Hana3A (HEK293-derived)
T7 sequence (Q923Y6 1-338): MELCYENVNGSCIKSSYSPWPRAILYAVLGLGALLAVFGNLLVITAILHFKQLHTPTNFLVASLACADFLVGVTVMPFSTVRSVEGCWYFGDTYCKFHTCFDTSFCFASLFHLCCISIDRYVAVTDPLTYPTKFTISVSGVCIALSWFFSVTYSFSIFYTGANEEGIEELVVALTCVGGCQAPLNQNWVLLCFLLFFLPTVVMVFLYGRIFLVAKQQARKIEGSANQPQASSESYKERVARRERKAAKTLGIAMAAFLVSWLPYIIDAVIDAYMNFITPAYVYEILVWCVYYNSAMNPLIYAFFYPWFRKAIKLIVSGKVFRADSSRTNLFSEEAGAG
Protocol: We examined the response of TAAR9s from rat, human, hamster, and rabbit to the stimulation of 1 mM amines using a well-established cAMP response element (CRE)-driven luciferase reporter assay based on Golf-mediated cAMP signal transduction ([5], [24]). In addition to the four mTAAR9 ligands, we included putrescine, which is also a polyamine and precursor of spermine/spermidine biosynthesis.
as §1, §2

[8] = target: T8, mTAAR8c (Mus musculus, UniProt Q5QD05); test: CRE-luciferase reporter assay in Hana3A, mouse olfactory TAARs; assay type: cell-based; settings: ligand 500 μM, Fig. 1D
T8 construct: expressed in transfected cells; host or cells: Hana3A (HEK293-derived)
Protocol: as §1
(§3) We then sought to determine if other mouse olfactory TAARs are activated by the mTAAR9 ligands.
as §2

[9] = target: mTAAR5 (Mus musculus, UniProt Q5QD14); settings: mTAAR5, ligand 500 μM, Fig. 1D
Protocol: as §1, §3, §2

[10] = target: mTAAR7f (Mus musculus, UniProt Q5QD08); settings: ligand 500 μM, Fig. 1D
Protocol: as §1, §3, §2

T8 sequence (Q5QD05 whole entry): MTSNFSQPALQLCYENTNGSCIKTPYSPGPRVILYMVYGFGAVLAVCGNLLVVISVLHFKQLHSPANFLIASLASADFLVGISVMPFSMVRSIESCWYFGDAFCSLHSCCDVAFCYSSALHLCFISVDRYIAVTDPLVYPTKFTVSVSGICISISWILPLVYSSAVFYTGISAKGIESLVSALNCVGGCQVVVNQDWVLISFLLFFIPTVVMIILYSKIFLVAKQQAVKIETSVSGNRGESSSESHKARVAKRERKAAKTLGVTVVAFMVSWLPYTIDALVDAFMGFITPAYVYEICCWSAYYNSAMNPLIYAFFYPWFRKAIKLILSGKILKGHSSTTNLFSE
Sequence of mTAAR5 (Q5QD14 whole entry): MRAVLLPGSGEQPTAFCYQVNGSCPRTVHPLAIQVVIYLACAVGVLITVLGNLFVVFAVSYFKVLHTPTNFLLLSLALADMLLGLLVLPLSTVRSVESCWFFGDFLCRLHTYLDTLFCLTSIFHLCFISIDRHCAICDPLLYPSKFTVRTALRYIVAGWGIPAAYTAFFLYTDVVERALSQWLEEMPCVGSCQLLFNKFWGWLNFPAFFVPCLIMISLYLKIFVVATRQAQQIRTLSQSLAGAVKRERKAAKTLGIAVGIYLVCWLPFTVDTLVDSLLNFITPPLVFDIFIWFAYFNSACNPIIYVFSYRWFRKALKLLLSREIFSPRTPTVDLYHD
T5 sequence (Q5QD04 whole entry W298Y): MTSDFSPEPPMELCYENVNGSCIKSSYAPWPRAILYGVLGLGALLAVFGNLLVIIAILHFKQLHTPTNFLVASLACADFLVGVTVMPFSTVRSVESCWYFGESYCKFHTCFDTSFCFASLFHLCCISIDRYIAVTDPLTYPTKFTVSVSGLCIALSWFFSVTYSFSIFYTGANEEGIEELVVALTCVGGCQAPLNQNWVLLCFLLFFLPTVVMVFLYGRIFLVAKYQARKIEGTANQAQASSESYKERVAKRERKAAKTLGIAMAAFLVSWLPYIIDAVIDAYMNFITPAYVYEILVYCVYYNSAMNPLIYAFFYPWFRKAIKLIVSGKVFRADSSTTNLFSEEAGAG
Sequence of mTAAR7f (Q5QD08 whole entry): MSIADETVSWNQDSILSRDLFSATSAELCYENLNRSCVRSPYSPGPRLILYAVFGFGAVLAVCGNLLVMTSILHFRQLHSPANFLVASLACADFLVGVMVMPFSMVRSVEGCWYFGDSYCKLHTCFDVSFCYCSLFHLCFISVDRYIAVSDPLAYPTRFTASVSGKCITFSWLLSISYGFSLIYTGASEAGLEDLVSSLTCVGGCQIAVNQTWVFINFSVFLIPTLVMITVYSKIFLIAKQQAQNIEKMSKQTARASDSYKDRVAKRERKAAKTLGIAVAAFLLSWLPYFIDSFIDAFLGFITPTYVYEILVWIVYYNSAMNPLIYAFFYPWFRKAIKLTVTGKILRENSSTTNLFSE

NCCCCNCCCN [spermidine]
EC50 [1]: 43 ± 7 µM | EC50 [2]: > 1000 µM | EC50 [3]: 142 ± 43 µM | EC50 [4]: 9 ± 7 µM | EC50 [5]: 2 ± 0.5 µM | EC50 [6]: 68 ± 48 µM | reporter activity (activation of TAAR9) [7]: maximum responses | reporter activity [8]: modest activity

CCN(CC)CC [triethylamine]
EC50 [1]: 251 ± 82 µM | EC50 [2]: 355 ± 80 µM | EC50 [3]: > 1000 µM | EC50 [4]: 36 ± 16 µM | EC50 [6]: > 1000 µM | reporter activity [8]: moderate activities | reporter activity [9]: moderate activities | reporter activity [10]: robust responses

From article PMC8546428, “Convergent olfactory trace amine-associated receptors detect biogenic polyamines with distinct motifs via a conserved binding site” (The Journal of Biological Chemistry, 2021)
